Experiments:
[1] = Analyte composition of a subject after cannabis consumption (illustrative Table 2); format: in vivo, human; details: simplified data set to exemplify the method; for Analyte level, intoxicated state: 1 hr after consumption; for Analyte level, post-intoxicated state: 36 hr after consumption
Text: For example, which is not to be considered limiting, in a THC induced intoxicated sate, a subject may comprise the analyte composition presented in Table 1. It is to be understood that this table presents a simplified data set to exemplify the method described herein. Other analytes, which may include known analytes or ghost analytes, are indicated as analytes A, B . . . C; A′, B′, . . . C′; A″, B″ . . . C″. These other analytes may increase or decrease in response to, or that are correlated with, the physiological condition and they may be included in this analysis.
In this example, the result may be considered positive for a THC-induced intoxicated state if the Index is greater than a preset value which is determined based on an analysis of the analytes determined in subjects who were exposed to a control treatment, or a range of THC under controlled conditions, for example an Index value of (2+A)/(C+ . . . +C) may be an indication of a positive result for the state of THC-induced intoxication.

[2] = cited from earlier work

SMILES | Analyte level, intoxicated state [1] | Analyte level, post-intoxicated state [1] | residual THC in serum ([2]; chronic users of marijuana, detected for 24 to 48 hours or longer, serum) | residual THC in whole blood ([2]; chronic users of marijuana, detected for 24 to 48 hours or longer, whole blood) | time of THC peak after inhaling ([2]; smoked marijuana) | THC level remaining ([2]; smoked marijuana, for 8 hours or more)
CCCCCc1cc(O)c2c(c1)OC(C)(C)C1CCC(CO)=CC21 (stereo not shown) [11-OH-THC, 11-hydroxy THC] | 5 ng/mL | 2 ng/mL | – | – | – | –
CCCCCc1cc(O)c2c(c1)OC(C)(C)[C@@H]1CCC(C)=C[C@@H]21 [THC, delta-9-tetrahydrocannabinol] | 78 ng/mL | 8 ng/mL | 1.0 to 6.4 ng/mL | 0.5 to 3.2 ng/mL | first few minutes | 1 to 2 ng/mL
CCCCCc1cc(O)c2c(c1)OC(C)(C)[C@@H]1CCC(C(=O)O)=C[C@@H]21 [THC-COOH, 11-nor-9-carboxy-THC] | 5 ng/mL | 11 ng/mL | – | – | – | –

Reference: patent publication US20240130690A1, “NON-INVASIVE DETERMINATION OF A PHY[…] OF INTEREST IN A SUBJECT FROM SPECTRAL DATA PROCESSED USING A TRAINED MACHINE LEARNING MODEL” (ISBRG CORP., priority 2021, published 2024)
